# According to patent US8735152B2, “Methods for inducing cell death in pluripotent stem cells and differentiated cells other than cardiac myocytes” (Daiichi Sankyo Company, Limited, priority 2009, dated 2014):
# How the values were obtained:
# Format in all cases: cell-based
# [1] = tested on: human embryonic stem cell-derived embryoid bodies; assay: Cell death inducing effect on residual stem cells in human embryonic stem cell-derived embryoid bodies and enrichment of cardiomyocytes; settings: 0.45 M, 2 hours
# Method: After passaging, human embryonic stem cells were subjected to suspension culture in a culture medium [α-MEM (minimum essential medium) (SIGMA), supplemented with 10% FBS (EQUITEC BIO), 100 units/ml penicillin, and 50 μg/ml streptomycin (GIBCO)] to induce formation of embryoid bodies. At 14-18 days after the start of differentiation (the start of suspension culture), autonomously pulsating cells started to differentiate, which was confirmed in a separate step that they were cardiomyocytes.
# The embryoid bodies still maintained an autonomously pulsating ability after the passage of 3 months from the start of differentiation. They were partially treated with 0.1% collagenase (Wortington) and 0.1% trypsin (DIFCO) to be dispersed as fine cell masses. The cell masses were divided into two groups; one group was treated with 0.45 M mannitol (approximately equivalent to 720 mOsm/kg) for 2 hours, and the other group (control) was not treated with mannitol but treated with the same amount of a solution having the physiological osmotic pressure, Ads buffer (116.4 mM NaCl, 5.4 mM KCl, 5.6 mM dextrose, 10.9 mM NaH2PO4, 405.7 μM MgSO4, 20 mM Hepes, pH 7.3) for 2 hours. After the treatment, both cell groups were subjected to adherent culture for 3 days in a DMEM solution supplemented with 10% fetal calf serum.
# The mannitol-treated cells and the control cells were analyzed in accordance with the experimental procedure of Example 1 using a mouse anti-Oct-3/4 monoclonal antibody (No. 084720 of BD Transduction Laboratories) and a goat anti-Nkx 2.5 antibody (No. N-19 of Santacruz) as primary antibodies, for the expression of the Oct-3/4 protein which was both a marker of embryonic stem cells and an intranuclear transcription factor, and for the expression of the Nkx 2.5 protein which was both a cardiomyocyte marker and an intranuclear transcription factor, respectively. The results for the control group, one of the two divided samples, are shown in FIG. 10 and the results for the test group subjected to 2-hr treatment with mannitol are shown in FIG. 11. The upper panels of FIG. 10 show the results of cardiomyocytes and the lower panels show the results of embryonic stem cells.
# The embryoid bodies still maintained an autonomously pulsating ability after the passage of 3 months from the start of differentiation. They were partially treated with 0.1% collagenase (Wortington) and 0.1% trypsin (DIFCO) to be dispersed as fine cell masses. The cell masses were divided into two groups; one group was treated with saccharides (sugar alcohols: sorbitol, xylitol, and glycerol; sugars: sucrose and glucose; betaines: trimethylglycine) for 12 hours in an amount of 0.45 M (approximately equivalent to 700-780 mOsm/kg) or 0.6 M (approximately equivalent to 850-1000 mOsm/kg), and the other group (control) was not treated with those saccharides but treated with the same amount of a solution having the physiological osmotic pressure, Ads buffer (116.4 mM NaCl, 5.4 mM KCl, 5.6 mM dextrose, 10.9 mM NaH2PO4, 405.7 μM MgSO4, 20 mM Hepes, pH 7.3) for 2 hours. After the treatment, both cell groups were cultured for 12 hours in a DMEM solution supplemented with 10% fetal calf serum.
# Samples of differentiated cells derived from human embryonic stem cells, as treated with 0.45 M glycerol (approximately equivalent to 710 mOsm/kg) or 0.6 M glycerol (approximately equivalent to 870 mOsm/kg), were examined for their morphology under the culture conditions. […] The cell death inducing effect was noticeable when the cells were exposed to glycerol for 10 hours and longer (FIG. 14).
# [2] = tested on: human induced pluripotent stem cells (iPS cells); assay: Cell death inducing effect on human induced pluripotent stem cells (TMRM, FACS); settings: 0.45 M, 2 hours
# Method: The human iPS cells were obtained from Stem Cell Research Center, Institute for Frontier Medical Sciences, Kyoto University (ES cell center sponsored by the National Bio-Resource Project). The cells were cultured basically in accordance with the same method as that in the case of human embryonic stem cells, i.e., in accordance with the same method as described in Example 5. After passaging, the cells were dispersed with each other using TE (0.25% trypsin (GIBCO) and 1 mM EDTA) and in accordance with a published document (Watanabe, K. et al., Nat. Biotechnol., 2007, 25: 681-686, Epub 2007 May 27), 10 μM of a ROCK inhibitor (Y27632) was added to suppress cell death. At the same time, the mitochondria in the live cells were stained with 50 nM TMRM. […] In the control, cells were aggregated with each other to make masses, so before FACS analysis, both samples were given another treatment with trypsin and EDTA to disperse the cells; thereafter, the samples were analyzed by FACS for the level of mitochondrial membrane potential on the basis of the fluorescent intensity of TMRM to check the state of survival of the stem cells; the results are shown in FIG. 12. […]
# [3] = tested on: mouse embryonic stem cells; assay: Cell death inducing effect on mouse embryonic stem cells (TMRM, FACS); settings: 0.45 M
# Source text: The mitochondrial membrane potential is lost in dead cells, so if cells are stained with the mitochondrial membrane potential sensitive reagent TMRM (Molecular Probe) which emits fluorescence upon detecting the membrane potential which is an indicator of survival, the fluorescence signal derived from this reagent is high in live cells but low in dead cells. This feature was used in Example 3; embryonic stem cells cultured by the method of Example 1 were further cultured in an α-MEM culture medium containing 0.45 M mannitol (approximately equivalent to 720 mOsm/kg) and 1 μM TMRM for a period of 0 h (Pre), 3 h, 6 h or 20 h; the cultured embryonic stem cells were harvested, washed and subjected to FACS analysis for checking the state of their survival on the basis of the fluorescence intensity of the mitochondrial membrane potential sensitive reagent TMRM; the results are shown in FIG. 4. In FIG. 4 depicting the results of FACS analysis for 0 h (Pre), 3 h, 6 h, and 20 h, the cells lying above the border line on the dot plots diagrams are live cells and those below the border line are dead cells.
# [4] = tested on: cardiomyocyte containing mouse embryoid bodies; assay: Low-concentration mannitol treatment of cardiomyocyte containing mouse embryoid bodies; settings: 0.2 M, 72 hours
# Method: Additionally, similar to the method described in Example 1, 75 mouse embryonic stem cells per EB were cultured as cell masses for a total of 7 days by the hanging-drop technique using a culture medium [α-MEM (minimum essential medium) (SIGMA), supplemented with 10% FBS (EQUITEC BIO), 100 units/ml penicillin, and 50 μg/ml streptomycin (GIBCO)], whereby the stem cells were differentiated into cell masses containing cardiomyocytes; thereafter, the embryoid bodies were adhered to the culture dish and cultured for another 3-5 days under the conditions of 37° C. and 5% CO2.
# [5] = one week after the treatment, immunohistochemical technique
smiles,measurement,setting,value
OC[C@@H](O)[C@@H](O)[C@H](O)[C@H](O)CO [mannitol],Toxicity in cardiomyocytes,[1],does not show significant toxicity in cardiomyocytes
same,Autonomously pulsating cells,[1]; then 3 days adherent culture,autonomously pulsating cell populations and autonomously pulsating single cells were found adherent to or suspended in the culture dish
same,Colonies of cells assumed to be undifferentiated cells,[1]; then 3 days adherent culture,no such cell populations were found at all
same,Type of surviving cells (Nkx 2.5),[1]; [5],a great majority of the surviving cells were Nkx 2.5 positive cardiomyocytes
same,Type of surviving cells (Oct-3/4),[1]; [5],Oct-3/3 negative cells were hardly detectable
same,"Mitochondrial membrane potential (TMRM fluorescence, FACS)",[2],almost all of the cells treated with mannitol for 2 hours had lost membrane potential
same,Cells that had died,[3]; 3-hr treatment,approximately 90%
same,Cells that had died,[3]; 6-hr treatment,98%
same,Cells that had died,[3]; 20-hr treatment,all cells had been dead
same,State of cells other than cardiomyocytes and of cardiomyocytes,[4],almost all cells other than cardiomyocytes had died and only the cardiomyocytes survived selectively
